Reference: patent US20140107100A1, “Benzoxazepines as Inhibitors of PI3K/mTOR and Methods of Their Use and Manufacture” (EXELIXIS, INC., priority 2010, published 2014)

Biological target: mTOR/GbL/Raptor (mTORC1) (Homo sapiens, UniProt P42345)
Assay: mTOR/GbL/Raptor (mTORC1) ELISA assay, phosphorylation of 4E-BP1
Assay type: biochemical
Settings: 0.2 nM mTORC1, 40 uM ATP, 50 nM NHis-tagged 4E-BP1, 120 minutes; read-out: IC50 in this assay (mTORC1 ELISA)
Protocol: The measurement of mTORC1 enzyme activity was performed in an ELISA assay format following the phosphorylation of 4E-BP1 protein. All experiments were performed in the 384-well format. Generally, 0.5 μL DMSO containing varying concentrations of the test Compound was mixed with 15 μL enzyme solution. Kinase reactions were initiated with the addition of 15 μL of substrates-containing solution. The assay conditions were-as follows; 0.2 nM mTORC1, 40 uM ATPand 50 nM NHis-tagged4E-BP1 in20 mM Hepes, pH 7.2, 1 mM DTT, 50 mMNaC1, 10 mM MnC12, 0.02 mg/mL BSA, 0.01% CHAPS, 50 mM β-glycerophosphate. Following an incubation of 120 minutes at anibient temperature, 20 μL of the reaction volume was transferred to a Ni-Chelate-coated 384-well plate. The binding step of the 4E-BP1 protein proceeded for 60 minutes, followed by washing 4 times each with 50 uL of Tris-buffered saline solution (TBS). Anti-phospho-4E-BPl rabbit-IgG ([…]. 1:5000) in 5% BSA-TBST (0.2% Tween-20 in TBS) was added and further incubated for 60 minutes. Incubation with a secondary HRP-tagged anti-IgG was similarly performed after washing off the primary antibody (4 washes of 50 μL). Following the final wash step with TBST, 20 μL of SuperSignal ELISA Femto (Pierce Biotechnology) was added and the luminescence measured using an En Vision plate reader.

| IC50 | Compound |
| --- | --- |
| ≤ 100 nM | Cc1cc(-c2cnc3sc(N)nc3c2)cc2c1OCCN(c1nc(N)c(C#N)cc1C#N)C2 [Compound 32, 2-amino-6-[7-(2-amino[1,3]thiazolo[5,4-b]pyridin-6-yl)-9-methyl-2,3-dihydro-1,4-benzoxazepin-4(5H)-yl]pyridine-3,5-dicarbonitrile] |
| ≤ 100 nM | Cc1cc(-c2cnc3sc(N)nc3c2)cc2c1OCCN(c1nccnc1C#N)C2 [Compound 34, 3-[7-(2-amino[1,3]thiazolo[5,4-b]pyridin-6-yl)-9-methyl-2,3-dihydro-1,4-benzoxazepin-4(5H)-yl]pyrazine-2-carbonitrile] |
| 100 to 500 nM | Cc1cc(-c2cnc3sc(N)nc3c2)cc2c1OCCN(c1ncc(F)c(N)n1)C2 [Compound 35, 6-[4-(4-amino-5-fluoropyrimidin-2-yl)-9-methyl-2,3,4,5-tetrahydro-1,4-benzoxazepin-7-yl][1,3]thiazolo[5,4-b]pyridin-2-amine] |
| 100 to 500 nM | Cc1cc(-c2cnc3sc(N)nc3c2)cc2c1OCCN(c1ccc(C#N)cn1)C2 [Compound 36, 6-[7-(2-amino[1,3]thiazolo[5,4-b]pyridin-6-yl)-9-methyl-2,3-dihydro-1,4-benzoxazepin-4(5H)-yl]pyridine-3-carbonitrile] |
| 100 to 500 nM | Cc1cnc(N2CCOc3c(C)cc(-c4cnc5sc(N)nc5c4)cc3C2)nc1N [Compound 37, 6-[4-(4-amino-5-methylpyrimidin-2-yl)-9-methyl-2,3,4,5-tetrahydro-1,4-benzoxazepin-7-yl][1,3]thiazolo[5,4-b]pyridin-2-amine] |
| 100 to 500 nM | Cc1cc(-c2cnc3sc(N)nc3c2)cc2c1OCCN(c1ncccc1C#N)C2 [Compound 38, 2-[7-(2-amino[1,3]thiazolo[5,4-b]pyridin-6-yl)-9-methyl-2,3-dihydro-1,4-benzoxazepin-4(5H)-yl]pyridine-3-carbonitrile] |
| 100 to 500 nM | Cc1cc(-c2cnc3sc(N)nc3c2)cc2c1OCCN(c1ncccc1C(N)=O)C2 [Compound 39, 2-[7-(2-amino[1,3]thiazolo[5,4-b]pyridin-6-yl)-9-methyl-2,3-dihydro-1,4-benzoxazepin-4(5H)-yl]pyridine-3-carboxamide] |
| ≤ 100 nM | C=Cc1c(Cl)nc(N)nc1N1CCOc2c(C)cc(-c3cnc4sc(N)nc4c3)cc2C1 [Compound 40, 6-[4-(2-amino-6-chloro-5-ethenylpyrimidin-4-yl)-9-methyl-2,3,4,5-tetrahydro-1,4-benzoxazepin-7-yl][1,3]thiazolo[5,4-b]pyridin-2-amine] |
| ≤ 100 nM | CCCc1c(C)nc(N)nc1N1CCOc2c(C)cc(-c3cnc4sc(N)nc4c3)cc2C1 [Compound 41, 6-[4-(2-amino-6-methyl-5-propylpyrimidin-4-yl)-9-methyl-2,3,4,5-tetrahydro-1,4-benzoxazepin-7-yl][1,3]thiazolo[5,4-b]pyridin-2-amine] |
| ≤ 100 nM | Cc1cc(-c2ccc(-c3ncc[nH]3)cc2)cc2c1OCCN(c1nc(N)nc(C)c1C(C)C)C2 [Compound 42, 4-{7-[4-(1H-imidazol-2-yl)phenyl]-9-methyl-2,3-dihydro-1,4-benzoxazepin-4(5H)-yl}-6-methyl-5-(1-methylethyl)pyrimidin-2-amine] |
| ≤ 100 nM | Cc1cc(-c2cnc(Cl)c(NS(C)(=O)=O)c2)cc2c1OCCN(c1nc(C(=O)NCCN(C)C)nc(C)c1C(C)C)C2 [Compound 43, 4-[7-(6-chloro-5-[(methylsulfonyl)amino]pyridin-3-yl}-9-methyl-2,3-dihydro-1,4-benzoxazepin-4(5H)-yl]-N-[2-(dimethylamino)ethyl]-6-methyl-5-(1-methylethyl)pyrimidine-2-carboxamide] |
| ≤ 100 nM | Cc1cc(-c2cnc(Cl)c(NS(C)(=O)=O)c2)cc2c1OCCN(c1nc(C(N)=O)nc(C)c1C(C)C)C2 [Compound 44, 4-[7-{6-chloro-5-[(methylsulfonyl)amino]pyridin-3-yl}-9-methyl-2,3-dihydro-1,4-benzoxazepin-4(5H)-yl]-6-methyl-5-(1-methylethyl)pyrimidine-2-carboxamide] |
| 100 to 500 nM | Cc1nc2ccc(-c3cc(C)c4c(c3)CN(c3nc(CN(C)C)nc(C)c3C(C)C)CCO4)cc2[nH]1 [Compound 45, N,N-dimethyl-1-{4-methyl-5-(1-methylethyl)-6-[9-methyl-7-(2-methyl-1H-benzimidazol-6-yl)-2,3-dihydro-1,4-benzoxazepin-4(5H)-yl]pyrimidin-2-yl}methanamine] |
| ≤ 100 nM | Cc1cc(-c2cnc3sc(N)nc3c2)cc2c1OCCN(c1nc(N)nc(C)c1CC1CC1)C2 [Compound 46, 6-{4-[2-amino-5-(cyclopropylmethyl)-6-methylpyrimidin-4-yl]-9-methyl-2,3,4,5-tetrahydro-1,4-benzoxazepin-7-yl}[1,3]thiazolo[5,4-b]pyridin-2-amine] |
| 100 to 500 nM | Cc1nc2ccc(-c3cc(C)c4c(c3)CN(c3ncnc5ccc(I)cc35)CCO4)cc2[nH]1 [Compound 47, 4-(6-iodoquinazolin-4-yl)-9-methyl-7-(2-methyl-1H-benzimidazol-6-yl)-2,3,4,5-tetrahydro-1,4-benzoxazepine] |
| 100 to 500 nM | Cc1cnccc1N1CCOc2c(C)cc(-c3cnc4sc(N)nc4c3)cc2C1 [Compound 48, 6-[9-methyl-4-(3-methylpyridin-4-yl)-2,3,4,5-tetrahydro-1,4-benzoxazepin-7-yl][1,3]thiazolo[5,4-b]pyridin-2-amine] |
| ≤ 100 nM | Cc1cc(-c2cnc3sc(N)nc3c2)cc2c1OCCN(c1nc(N)nc(C)c1-c1cccc(F)c1)C2 [Compound 49, 6-{4-[2-amino-5-(3-fluorophenyl)-6-methylpyrimidin-4-yl]-9-methyl-2,3,4,5-tetrahydro-1,4-benzoxazepin-7-yl}[1,3]thiazolo[5,4-b]pyridin-2-amine] |
| ≤ 100 nM | Cc1cc(-c2cnc3sc(N)nc3c2)cc2c1OCCN(c1nc(NCCN(C)C)nc(C)c1C(C)C)C2 [Compound 50, N′-{4-[7-(2-amino[1,3]thiazolo[5,4-b]pyridin-6-yl)-9-methyl-2,3-dihydro-1,4-benzoxazepin-4(5H)-yl]-6-methyl-5-(1-methylethyl)pyrimidin-2-yl}-N,N-dimethylethane-1,2-diamine] |
| ≤ 100 nM | C=CCc1c(C)nc(N)nc1N1CCOc2c(C)cc(-c3cnc4sc(N)nc4c3)cc2C1 [Compound 51, 6-{4-(2-amino-6-methyl-5-prop-2-en-1-ylpyrimidin-4-yl)-9-methyl-2,3,4,5-tetrahydro-1,4-benzoxazepin-7-yl][1,3]thiazolo[5,4-b]pyridin-2-amine] |
| ≤ 100 nM | Cc1cc(-c2cnc(Cl)c(NS(=O)(=O)C(F)(F)F)c2)cc2c1OCCN(c1nc(N)nc(C)c1C(C)C)C2 [Compound 52, N-(5-{4-[2-amino-6-methyl-5-(1-methylethyl)pyrimidin-4-yl]-9-methyl-2,3,4,5-tetrahydro-1,4-benzoxazepin-7-yl}-2-chloropyridin-3-yl)-1,1,1-trifluoromethanesulfonamide] |
| ≤ 100 nM | CNc1nc(C)c(C(C)C)c(N2CCOc3c(C)cc(-c4cnc5sc(N)nc5c4)cc3C2)n1 [Compound 53, 6-{9-methyl-4-[6-methyl-2-(methylamino)-5-(1-methylethyl)pyrimidin-4-yl]-2,3,4,5-tetrahydro-1,4-benzoxazepin-7-yl}[1,3]thiazolo[5,4-b]pyridin-2-amine] |
| ≤ 100 nM | CCc1c(Cl)nc(N)nc1N1CCOc2c(C)cc(-c3cnc4sc(N)nc4c3)cc2C1 [Compound 54, 6-[4-(2-amino-6-chloro-5-ethylpyrimidin-4-yl)-9-methyl-2,3,4,5-tetrahydro-1,4-benzoxazepin-7-yl}[1,3]thiazolo[5,4-b]pyridin-2-amine] |
| ≤ 100 nM | Cc1cc(-c2cnc3sc(N)nc3c2)cc2c1OCCN(c1nc(N)ccc1C#N)C2 [Compound 55, 6-amino-2-[7-(2-amino[1,3]thiazolo[5,4-b]pyridin-6-yl)-9-methyl-2,3-dihydro-1,4-benzoxazepin-4(5H)-yl]pyridine-3-carbonitrile] |
| ≤ 100 nM | CCc1nc(N)nc(N2CCOc3c(C)cc(-c4cnc5sc(N)nc5c4)cc3C2)c1C(C)C [Compound 56, 6-{4-[2-amino-6-ethyl-5-(1-methylethyl)pyrimidin-4-yl]-9-methyl-2,3,4,5-tetrahydro-1,4-benzoxazepin-7-yl}[1,3]thiazolo[5,4-b]pyridin-2-amine] |
| ≤ 100 nM | Cc1cc(-c2cnc3sc(N)nc3c2)cc2c1OCCN(c1nc(N)c(C#N)c(C)c1C#N)C2 [Compound 57, 2-amino-6-[7-(2-amino[1,3]thiazolo[5,4-b]pyridin-6-yl)-9-methyl-2,3-dihydro-1,4-benzoxazepin-4(5H)-yl]-4-methylpyridine-3,5-dicarbonitrile] |
| ≤ 100 nM | Cc1cc(-c2cnc3sc(N)nc3c2)cc2c1OCCN(c1nc(CN(C)C)ncc1C(C)C)C2 [Compound 58, 6-(4-{2-[(dimethylamino)methyl]-5-(1-methylethyl)pyrimidin-4-yl}-9-methyl-2,3,4,5-tetrahydro-1,4-benzoxazepin-7-yl)[1,3]thiazolo[5,4-b]pyridin-2-amine] |
